Holding throughout (type): functional
Experiment [1] relates to Candida albicans. The experiment can be described thus: Antifungal activity against Candida albicans CA98001.
In a further experiment the test system is Aspergillus fumigatus. The experiment can be described thus: Antifungal activity against Aspergillus fumigatus AF98003.
The test system of experiment [2] is Candida parapsilosis. The experiment is described as follows: Antifungal activity against fluconazole-resistant Candida parapsilosis Houdeau. To be noted: Lodderomyces parapsilosis.
In experiment [3] the test system is Pichia kudriavzevii. The experiment is described as follows: Antifungal activity against fluconazole-resistant Candida krusei CK506.
The subject of experiment [4] is Pichia kudriavzevii. The experiment is described as follows: Antifungal activity against fluconazole low-sensitive Candida krusei CK8.
In experiment [5] the test system is Candida albicans. The experiment can be described thus: Antifungal activity against fluconazole-resistant Candida albicans CA424.
Another experiment concerns Nakaseomyces glabratus. The experiment is described as follows: Antifungal activity against fluconazole-resistant Candida glabrata CG468.
Experiment [6] has as its system Candida albicans. The experiment is described as follows: Antifungal activity against fluconazole-resistant Candida albicans CA284.
The test system of experiment [7] is Candida parapsilosis. The experiment is described as follows: Antifungal activity against fluconazole-resistant Candida parapsilosis Rolland. To be noted: Lodderomyces parapsilosis.

In brackets after ≈: the same amount, converted by molar mass. Activity calls are given as the source filed them. The rule behind the calls is not given here. Some results are limits rather than exact numbers.

As usually defined, the MIC is the lowest concentration that inhibits growth of the organism.

The molecule `CN(Cc1ccc2[nH]cc(C(=O)C(F)(F)F)c2c1)CC(O)(Cn1cncn1)c1ccc(F)cc1F` (stereo unspecified) had an MIC with Candida albicans [1] of 0.064 µg/mL (≈ 0.13 µM). The MIC entry with Aspergillus fumigatus was “inactive”.
In the same order, the values of `CN(Cc1ccc2c(ccn2C(=O)c2ccccc2)c1)CC(O)(Cn1cncn1)c1ccc(F)cc1F` (stereo unspecified) are 0.032 µg/mL (≈ 0.0638 µM) and “inactive”.
In the same order, the values of `O=C(c1ccccc1)n1ccc2cc(CNCC(O)(Cn3cncn3)c3ccc(F)cc3F)ccc21` (stereo unspecified) are 0.027 µg/mL (≈ 0.0554 µM) and “inactive”.
In the same order, the values of `OC(CNCc1ccc2[nH]ccc2c1)(Cn1cncn1)c1ccc(Cl)cc1Cl` (stereo unspecified) are 0.031 µg/mL (≈ 0.0745 µM) and “inactive”.
In the case of `CN(Cc1ccc2c(ccn2C(=O)OC(C)(C)C)c1)CC(O)(Cn1cncn1)c1ccc(F)cc1F` (stereo unspecified), the minimal inhibitory concentration (MIC) against Candida albicans [1] came to 0.06 µg/mL (≈ 0.121 µM). Further, the MIC result in the experiment on Aspergillus fumigatus was “inactive”.
For `OC(Cn1cncn1)(Cn1cncn1)c1ccc(F)cc1F` [FLUCONAZOLE], the minimal inhibitory concentration (MIC) in the experiment on Candida parapsilosis [2] is more than 64 µg/mL; against Pichia kudriavzevii [3], more than 64 µg/mL; in the experiment on Candida albicans [1], 0.19 µg/mL (≈ 0.62 µM); in the experiment with Pichia kudriavzevii [4] it was 19 µg/mL (≈ 62 µM); in the experiment on Candida albicans [5] it was more than 64 µg/mL; with Nakaseomyces glabratus it was more than 64 µg/mL. Also, the MIC with Candida albicans [6] and against Candida parapsilosis [7] was more than 64 µg/mL each time.
Molecule `OC(CNCc1ccc2[nH]ccc2c1)(Cn1cncn1)c1ccc(F)cc1F` (stereo unspecified) gave an MIC in the experiment on Candida albicans [1] of 0.034 µg/mL (≈ 0.0887 µM). Moreover, the MIC entry with Aspergillus fumigatus was “inactive”.
As for `CN(Cc1ccc2[nH]ccc2c1)CC(O)(Cn1cncn1)c1ccc(F)cc1F` (stereo unspecified), in the experiment on Candida albicans [1], it took 0.035 µg/mL (≈ 0.0881 µM) to inhibit growth (MIC). Further, the MIC entry in the experiment on Aspergillus fumigatus was “inactive”.
In the same order, the values of `O=C(c1ccccc1)n1ccc2cc(CNCC(O)(Cn3cncn3)c3ccc(Cl)cc3Cl)ccc21` (stereo unspecified) are 0.031 µg/mL (≈ 0.0596 µM) and “inactive”.
Take `CCC(C)n1ncn(-c2ccc(N3CCN(c4ccc(OCC5COC(Cn6cncn6)(c6ccc(Cl)cc6Cl)O5)cc4)CC3)cc2)c1=O` (stereo unspecified) [ITRACONAZOLE]: in the experiment on Aspergillus fumigatus, the MIC is 0.42 µg/mL (≈ 0.595 µM).
In turn, `CC(C)(C)OC(=O)n1ccc2cc(CNCC(O)(Cn3cncn3)c3ccc(Cl)cc3Cl)ccc21` (stereo unspecified) yielded an MIC in the experiment with Candida albicans [1] of 0.039 µg/mL (≈ 0.0755 µM). In addition, the MIC entry in the experiment on Aspergillus fumigatus is “inactive”.
On to `CC(C)(C)OC(=O)n1ccc2cc(CNCC(O)(Cn3cncn3)c3ccc(F)cc3F)ccc21` (stereo unspecified), for which the MIC against Candida parapsilosis [2] was 24 µg/mL (≈ 49.6 µM); against Pichia kudriavzevii [3], 27 µg/mL (≈ 55.8 µM); against Candida albicans [1], 0.003 µg/mL (≈ 0.0062 µM); with Pichia kudriavzevii [4], 3.8 µg/mL (≈ 7.86 µM); against Candida albicans [5], 33 µg/mL (≈ 68.2 µM); against Nakaseomyces glabratus it was 12 µg/mL (≈ 24.8 µM). Besides, the MIC stood at 32 µg/mL (≈ 66.2 µM) in the experiment on Candida albicans [6] and 19 µg/mL (≈ 39.3 µM) in the experiment with Candida parapsilosis [7]. For the same molecule, in the experiment on Aspergillus fumigatus, the MIC result is “inactive”.
